The kinase profiling compilation of Christmann-Franck et al. (2016)

Assays:
Assay in all cases: radiometric filter-binding kinase assay, Kinase HotSpot
Conditions in all cases: compound 0.5 µM; ATP 10 µM
STK17A (human) = STK17A (human) (UniProt Q9UEE5)
PAK4 (human) = PAK4 (human) (UniProt O96013)
DMPK (human) = DMPK (human) (UniProt Q09013)
AXL (human) = AXL (human) (UniProt P30530)
NLK (human) = NLK (human) (UniProt Q9UBE8)
PHKG2 (human) = PHKG2 (human) (UniProt P15735)
CDC42BPA (human) = CDC42BPA (human) (UniProt Q5VT25)
CDC42BPA (human), sequence (Q5VT25 whole entry, looked up): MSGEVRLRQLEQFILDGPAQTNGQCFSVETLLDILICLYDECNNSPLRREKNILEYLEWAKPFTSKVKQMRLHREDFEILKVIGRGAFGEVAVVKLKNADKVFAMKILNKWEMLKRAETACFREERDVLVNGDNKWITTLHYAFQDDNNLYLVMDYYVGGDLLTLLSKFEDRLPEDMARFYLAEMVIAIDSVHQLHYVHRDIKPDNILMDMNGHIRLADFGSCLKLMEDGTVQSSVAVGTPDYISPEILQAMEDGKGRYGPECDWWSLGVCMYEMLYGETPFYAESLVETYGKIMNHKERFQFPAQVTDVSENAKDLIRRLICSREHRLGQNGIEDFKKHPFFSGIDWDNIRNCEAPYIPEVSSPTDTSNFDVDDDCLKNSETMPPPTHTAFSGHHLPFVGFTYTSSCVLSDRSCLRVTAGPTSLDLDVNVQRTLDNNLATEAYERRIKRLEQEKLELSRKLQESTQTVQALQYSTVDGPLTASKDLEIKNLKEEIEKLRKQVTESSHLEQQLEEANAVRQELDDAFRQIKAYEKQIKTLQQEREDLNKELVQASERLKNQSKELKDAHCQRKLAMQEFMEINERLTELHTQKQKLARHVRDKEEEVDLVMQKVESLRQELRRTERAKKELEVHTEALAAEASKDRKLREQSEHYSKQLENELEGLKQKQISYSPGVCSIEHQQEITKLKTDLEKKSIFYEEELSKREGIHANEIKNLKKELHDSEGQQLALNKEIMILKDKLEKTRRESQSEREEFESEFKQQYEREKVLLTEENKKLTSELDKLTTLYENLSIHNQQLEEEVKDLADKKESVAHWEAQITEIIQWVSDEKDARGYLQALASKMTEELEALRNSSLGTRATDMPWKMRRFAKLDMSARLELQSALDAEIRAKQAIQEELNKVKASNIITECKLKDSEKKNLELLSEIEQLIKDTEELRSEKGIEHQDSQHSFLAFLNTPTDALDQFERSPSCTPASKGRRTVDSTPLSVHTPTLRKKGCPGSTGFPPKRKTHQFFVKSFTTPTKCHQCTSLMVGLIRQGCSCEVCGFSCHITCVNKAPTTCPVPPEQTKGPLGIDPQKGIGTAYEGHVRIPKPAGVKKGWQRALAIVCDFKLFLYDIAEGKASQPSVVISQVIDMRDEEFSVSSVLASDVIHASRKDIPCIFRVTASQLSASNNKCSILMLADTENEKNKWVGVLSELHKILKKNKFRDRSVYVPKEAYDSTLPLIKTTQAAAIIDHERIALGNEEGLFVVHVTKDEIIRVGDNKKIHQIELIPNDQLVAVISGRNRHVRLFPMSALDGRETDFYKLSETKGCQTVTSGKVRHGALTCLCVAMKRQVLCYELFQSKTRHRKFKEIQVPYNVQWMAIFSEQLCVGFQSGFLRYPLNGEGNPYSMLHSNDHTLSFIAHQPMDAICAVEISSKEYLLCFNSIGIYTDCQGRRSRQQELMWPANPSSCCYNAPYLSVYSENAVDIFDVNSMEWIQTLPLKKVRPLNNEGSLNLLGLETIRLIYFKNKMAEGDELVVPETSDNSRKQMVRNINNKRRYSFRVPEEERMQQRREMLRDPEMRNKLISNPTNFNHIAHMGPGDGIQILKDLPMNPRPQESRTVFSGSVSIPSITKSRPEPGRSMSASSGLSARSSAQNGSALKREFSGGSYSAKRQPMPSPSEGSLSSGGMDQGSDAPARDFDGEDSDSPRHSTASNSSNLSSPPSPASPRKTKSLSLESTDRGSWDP

MELK (human) = MELK (human) (UniProt Q14680)
PIM1 (human) = PIM1 (human) (UniProt P11309)
HIPK4 (human) = HIPK4 (human) (UniProt Q8NE63)
TXK (human) = TXK (human) (UniProt P42681)
ULK1 (human) = ULK1 (human) (UniProt O75385)
EPHA4 (human) = EPHA4 (human) (UniProt P54764)
EPHA4 (human), sequence (P54764 whole entry, looked up): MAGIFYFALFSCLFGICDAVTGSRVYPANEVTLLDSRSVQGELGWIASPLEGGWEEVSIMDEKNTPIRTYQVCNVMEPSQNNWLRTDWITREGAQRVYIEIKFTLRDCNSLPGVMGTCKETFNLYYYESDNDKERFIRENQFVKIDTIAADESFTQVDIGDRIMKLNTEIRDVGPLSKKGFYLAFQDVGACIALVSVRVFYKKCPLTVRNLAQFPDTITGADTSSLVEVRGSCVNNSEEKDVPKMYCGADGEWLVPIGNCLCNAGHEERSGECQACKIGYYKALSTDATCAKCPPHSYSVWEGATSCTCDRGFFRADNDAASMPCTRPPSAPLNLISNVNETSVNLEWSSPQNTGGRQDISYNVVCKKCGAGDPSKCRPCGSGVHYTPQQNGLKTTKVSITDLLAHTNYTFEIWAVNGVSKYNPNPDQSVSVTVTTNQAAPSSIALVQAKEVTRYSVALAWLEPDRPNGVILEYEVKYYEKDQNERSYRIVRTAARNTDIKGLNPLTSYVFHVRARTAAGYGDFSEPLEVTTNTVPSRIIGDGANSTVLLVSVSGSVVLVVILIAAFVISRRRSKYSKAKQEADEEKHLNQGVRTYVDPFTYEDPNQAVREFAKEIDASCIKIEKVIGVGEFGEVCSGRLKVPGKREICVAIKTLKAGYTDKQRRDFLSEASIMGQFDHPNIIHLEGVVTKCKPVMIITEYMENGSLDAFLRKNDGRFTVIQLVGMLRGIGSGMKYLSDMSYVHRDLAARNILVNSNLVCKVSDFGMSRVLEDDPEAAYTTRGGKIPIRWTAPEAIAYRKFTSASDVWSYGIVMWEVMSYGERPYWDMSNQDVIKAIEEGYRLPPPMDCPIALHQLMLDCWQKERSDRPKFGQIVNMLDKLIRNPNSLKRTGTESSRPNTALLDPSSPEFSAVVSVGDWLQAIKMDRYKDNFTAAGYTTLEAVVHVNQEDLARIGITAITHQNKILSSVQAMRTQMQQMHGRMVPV

PAK6 (human) = PAK6 (human) (UniProt Q9NQU5)
RPS6KB2 (human) = RPS6KB2 (human) (UniProt Q9UBS0)
CAMK2A (human) = CAMK2A (human) (UniProt Q9UQM7)
EGFR (human) = EGFR (human) (UniProt P00533)
CDK6 CCND3 (human) = CDK6 CCND3 (human) (UniProt P30281+Q00534)
MKNK2 (human) = MKNK2 (human) (UniProt Q9HBH9)
SRPK2 (human) = SRPK2 (human) (UniProt P78362)
CLK2 (human) = CLK2 (human) (UniProt P49760)
BTK (human) = BTK (human) (UniProt Q06187)
CHEK2 (human) = CHEK2 (human) (UniProt O96017)
NUAK2 (human) = NUAK2 (human) (UniProt Q9H093)
VRK1 (human) = VRK1 (human) (UniProt Q99986)
PKN2 (human) = PKN2 (human) (UniProt Q16513)
DYRK2 (human) = DYRK2 (human) (UniProt Q92630)
MATK (human) = MATK (human) (UniProt P42679)
AURKB (human) = AURKB (human) (UniProt Q96GD4)
AURKB (human), sequence (Q96GD4 whole entry, looked up): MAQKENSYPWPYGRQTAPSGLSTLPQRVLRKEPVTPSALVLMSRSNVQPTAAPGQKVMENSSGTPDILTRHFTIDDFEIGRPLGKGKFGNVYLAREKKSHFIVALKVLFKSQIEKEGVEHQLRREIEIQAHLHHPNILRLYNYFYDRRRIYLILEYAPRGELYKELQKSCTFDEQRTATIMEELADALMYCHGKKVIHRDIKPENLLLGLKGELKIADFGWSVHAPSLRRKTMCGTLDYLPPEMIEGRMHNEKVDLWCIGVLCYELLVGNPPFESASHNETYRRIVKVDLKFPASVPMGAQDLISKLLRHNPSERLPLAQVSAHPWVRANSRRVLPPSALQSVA

ZAP70 (human) = ZAP70 (human) (UniProt P43403)
TAOK3 (human) = TAOK3 (human) (UniProt Q9H2K8)
KIT (human) = KIT (human) (UniProt P10721)
GRK7 (human) = GRK7 (human) (UniProt Q8WTQ7)
ALK (human) = ALK (human) (UniProt Q9UM73)
MYLK (human) = MYLK (human) (UniProt Q15746)
STK3 (human) = STK3 (human) (UniProt Q13188)
STK3 (human), sequence (Q13188 whole entry, looked up): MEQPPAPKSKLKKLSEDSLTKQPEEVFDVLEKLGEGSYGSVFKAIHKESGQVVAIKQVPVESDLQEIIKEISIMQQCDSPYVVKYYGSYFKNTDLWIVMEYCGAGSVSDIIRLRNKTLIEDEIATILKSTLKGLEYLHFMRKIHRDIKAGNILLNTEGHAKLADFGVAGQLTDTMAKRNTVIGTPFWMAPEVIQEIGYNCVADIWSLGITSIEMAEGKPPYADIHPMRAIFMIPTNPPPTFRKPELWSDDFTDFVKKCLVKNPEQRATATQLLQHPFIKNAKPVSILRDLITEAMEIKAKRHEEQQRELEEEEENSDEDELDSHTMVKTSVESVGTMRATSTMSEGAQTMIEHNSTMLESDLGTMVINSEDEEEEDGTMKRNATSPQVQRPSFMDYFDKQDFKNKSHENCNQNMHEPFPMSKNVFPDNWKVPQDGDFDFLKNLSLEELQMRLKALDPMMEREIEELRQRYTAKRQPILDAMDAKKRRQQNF

BRAF (human) = BRAF (human) (UniProt P15056)
RPS6KA3 KD1 KD2 (human) = RPS6KA3 KD1 KD2 (human) (UniProt P51812)
GSG2 (human) = GSG2 (human) (UniProt Q8TF76)
MAPK14 (human) = MAPK14 (human) (UniProt Q16539)
MAPK14 (human), sequence (Q16539 whole entry, looked up): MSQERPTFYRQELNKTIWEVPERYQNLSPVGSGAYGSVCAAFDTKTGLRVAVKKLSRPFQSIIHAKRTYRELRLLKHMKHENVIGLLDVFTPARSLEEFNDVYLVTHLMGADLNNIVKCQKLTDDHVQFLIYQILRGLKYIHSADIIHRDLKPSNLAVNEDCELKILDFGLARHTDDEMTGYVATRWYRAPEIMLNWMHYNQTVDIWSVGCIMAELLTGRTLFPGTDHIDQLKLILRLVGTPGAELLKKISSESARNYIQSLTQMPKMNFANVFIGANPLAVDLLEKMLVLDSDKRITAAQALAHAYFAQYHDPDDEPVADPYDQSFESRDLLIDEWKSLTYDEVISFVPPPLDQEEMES

CDK6 CCND1 (human) = CDK6 CCND1 (human) (UniProt Q00534+P24385)

STK17A (human), sequence (Q9UEE5 whole entry, looked up): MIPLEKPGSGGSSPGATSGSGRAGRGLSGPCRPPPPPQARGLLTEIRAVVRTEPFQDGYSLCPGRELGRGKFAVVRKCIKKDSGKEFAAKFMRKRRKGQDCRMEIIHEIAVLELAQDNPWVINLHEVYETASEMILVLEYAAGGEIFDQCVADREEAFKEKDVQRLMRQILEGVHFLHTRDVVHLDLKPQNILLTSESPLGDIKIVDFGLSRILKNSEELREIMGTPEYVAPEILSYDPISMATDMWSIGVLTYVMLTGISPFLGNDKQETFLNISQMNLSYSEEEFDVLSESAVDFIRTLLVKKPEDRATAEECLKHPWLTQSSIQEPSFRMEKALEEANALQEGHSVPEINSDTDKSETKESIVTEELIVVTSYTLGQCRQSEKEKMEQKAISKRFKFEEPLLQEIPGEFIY
PAK4 (human), sequence (O96013 whole entry, looked up): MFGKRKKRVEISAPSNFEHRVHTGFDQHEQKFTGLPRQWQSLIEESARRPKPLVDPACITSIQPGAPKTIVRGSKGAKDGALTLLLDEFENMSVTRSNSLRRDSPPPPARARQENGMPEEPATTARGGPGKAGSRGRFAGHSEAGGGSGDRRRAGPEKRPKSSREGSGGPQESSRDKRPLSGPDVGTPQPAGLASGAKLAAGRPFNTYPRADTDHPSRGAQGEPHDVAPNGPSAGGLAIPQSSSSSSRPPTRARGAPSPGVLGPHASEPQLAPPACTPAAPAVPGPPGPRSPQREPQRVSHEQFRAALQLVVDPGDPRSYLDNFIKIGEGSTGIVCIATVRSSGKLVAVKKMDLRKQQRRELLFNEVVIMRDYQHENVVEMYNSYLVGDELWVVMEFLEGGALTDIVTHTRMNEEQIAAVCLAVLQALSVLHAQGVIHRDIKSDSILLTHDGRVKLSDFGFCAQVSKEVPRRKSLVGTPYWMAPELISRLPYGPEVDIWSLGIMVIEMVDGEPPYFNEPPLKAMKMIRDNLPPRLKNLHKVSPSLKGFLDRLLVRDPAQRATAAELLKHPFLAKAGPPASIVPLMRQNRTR

Q: With `CC(C)N(CCC(=O)c1ccc2ccccc2c1)Cc1ccccc1` as the compound, how does the residual activity (STK17A (human)) read?
A: 104%

Q: And the residual activity (PAK4 (human))?
A: 90.4%

Q: And the residual activity (DMPK (human))?
A: 108%

Q: And the residual activity (AXL (human))?
A: 108%

Q: And the residual activity (NLK (human))?
A: 94.8%

Q: What about the residual activity (PHKG2 (human)) of the same compound?
A: 99.9%

Q: What about the residual activity (CDC42BPA (human)) of the same compound?
A: 99.4%

Q: And the residual activity (MELK (human))?
A: 99.4%

Q: What about the residual activity (PIM1 (human)) of the same compound?
A: 100%

Q: And the residual activity (HIPK4 (human))?
A: 107%

Q: What about the residual activity (TXK (human)) of the same compound?
A: 97.1%

Q: What about the residual activity (ULK1 (human)) of the same compound?
A: 104%

Q: What about the residual activity (EPHA4 (human)) of the same compound?
A: 94.5%

Q: What about the residual activity (PAK6 (human)) of the same compound?
A: 116%

Q: What about the residual activity (RPS6KB2 (human)) of the same compound?
A: 94.3%

Q: What about the residual activity (CAMK2A (human)) of the same compound?
A: 106%

Q: What about the residual activity (EGFR (human)) of the same compound?
A: 99.4%

Q: And the residual activity (CDK6 CCND3 (human))?
A: 102%

Q: What about the residual activity (MKNK2 (human)) of the same compound?
A: 100%

Q: And the residual activity (SRPK2 (human))?
A: 99.1%

Q: And the residual activity (CLK2 (human))?
A: 96.3%

Q: And the residual activity (BTK (human))?
A: 87.5%

Q: And the residual activity (CHEK2 (human))?
A: 87.5%

Q: What about the residual activity (NUAK2 (human)) of the same compound?
A: 85.4%

Q: What about the residual activity (VRK1 (human)) of the same compound?
A: 95.8%

Q: What about the residual activity (PKN2 (human)) of the same compound?
A: 98.7%

Q: What about the residual activity (DYRK2 (human)) of the same compound?
A: 118%

Q: And the residual activity (MATK (human))?
A: 80.7%

Q: And the residual activity (AURKB (human))?
A: 101%

Q: And the residual activity (ZAP70 (human))?
A: 93.7%

Q: And the residual activity (TAOK3 (human))?
A: 87.8%

Q: What about the residual activity (KIT (human)) of the same compound?
A: 86.5%

Q: And the residual activity (GRK7 (human))?
A: 121%

Q: And the residual activity (ALK (human))?
A: 88.9%

Q: What about the residual activity (MYLK (human)) of the same compound?
A: 95.6%

Q: What about the residual activity (STK3 (human)) of the same compound?
A: 102%

Q: And the residual activity (BRAF (human))?
A: 95.6%

Q: And the residual activity (RPS6KA3 KD1 KD2 (human))?
A: 95.1%

Q: What about the residual activity (GSG2 (human)) of the same compound?
A: 95.6%

Q: And the residual activity (MAPK14 (human))?
A: 94.4%

Q: And the residual activity (CDK6 CCND1 (human))?
A: 96.8%

Q: For `Cc1ccc(NC2=CC(=O)c3sc(C)nc3C2=O)cc1`, which residual activity (STK17A (human)) is on record?
A: 93.7%

Q: What about the residual activity (PAK4 (human)) of the same compound?
A: 105%

Q: And the residual activity (DMPK (human))?
A: 103%

Q: And the residual activity (AXL (human))?
A: 97%

Q: And the residual activity (NLK (human))?
A: 107%

Q: And the residual activity (PHKG2 (human))?
A: 96.3%

Q: And the residual activity (CDC42BPA (human))?
A: 77.6%

Q: And the residual activity (MELK (human))?
A: 93.2%

Q: And the residual activity (PIM1 (human))?
A: 96.8%

Q: What about the residual activity (HIPK4 (human)) of the same compound?
A: 93.7%

Q: And the residual activity (TXK (human))?
A: 98.8%

Q: What about the residual activity (ULK1 (human)) of the same compound?
A: 114%

Q: And the residual activity (EPHA4 (human))?
A: 86.5%

Q: And the residual activity (PAK6 (human))?
A: 110%

Q: And the residual activity (RPS6KB2 (human))?
A: 95.2%

Q: What about the residual activity (CAMK2A (human)) of the same compound?
A: 101%

Q: What about the residual activity (EGFR (human)) of the same compound?
A: 97.9%

Q: And the residual activity (CDK6 CCND3 (human))?
A: 99.6%

Q: What about the residual activity (MKNK2 (human)) of the same compound?
A: 89%

Q: And the residual activity (SRPK2 (human))?
A: 101%

Q: What about the residual activity (CLK2 (human)) of the same compound?
A: 83.6%

Q: What about the residual activity (BTK (human)) of the same compound?
A: 99.2%

Q: What about the residual activity (CHEK2 (human)) of the same compound?
A: 100%

Q: What about the residual activity (NUAK2 (human)) of the same compound?
A: 105%

Q: What about the residual activity (VRK1 (human)) of the same compound?
A: 108%

Q: What about the residual activity (PKN2 (human)) of the same compound?
A: 115%

Q: What about the residual activity (DYRK2 (human)) of the same compound?
A: 109%

Q: What about the residual activity (MATK (human)) of the same compound?
A: 88.3%

Q: And the residual activity (AURKB (human))?
A: 89.8%

Q: And the residual activity (ZAP70 (human))?
A: 95.4%

Q: What about the residual activity (TAOK3 (human)) of the same compound?
A: 98.9%

Q: And the residual activity (KIT (human))?
A: 74.7%

Q: And the residual activity (GRK7 (human))?
A: 101%

Q: And the residual activity (ALK (human))?
A: 105%

Q: And the residual activity (MYLK (human))?
A: 90.1%

Q: What about the residual activity (STK3 (human)) of the same compound?
A: 105%

Q: And the residual activity (BRAF (human))?
A: 96.7%

Q: What about the residual activity (RPS6KA3 KD1 KD2 (human)) of the same compound?
A: 104%

Q: What about the residual activity (GSG2 (human)) of the same compound?
A: 86.6%

Q: What about the residual activity (MAPK14 (human)) of the same compound?
A: 92.4%

Q: And the residual activity (CDK6 CCND1 (human))?
A: 101%
